Laboratory results published in patent US11324708B1 (UNION therapeutics A/S, priority 2020, dated 2022).

Assays:
[1] = system: ATCC 29213, MRSA 434844 and S. aureus Newman; test: Spot test on LB agar, statements for all three strains; assay type: cell-based; conditions: for bacterial load in repeated spot test, API in DMSO: only the highest concentrations (niclosamide 100 μg/mL, oxyclozanide 40 μg/mL; 200×-400× MIC of Niclo, 180× MIC Oxy)
Protocol: Following incubation, the formed colonies were counted. […] Duplicates were performed.
As both positive controls were negative further the experiment was repeated using different concentrations in a spot test using the same methodology described above.
In this experiment the negative control was the bacterial suspension only.

[2] = oral 2 g/day dose
SARS-CoV = conditions: Vero E6 cells; read-out: EC50 of SARS-CoV replication; cited from earlier work
asthmatic mice = conditions: niclosamide dissolved in corn oil, I.P. injection; cited from earlier work
TMEM16A = molecular target: T1, TMEM16A (Homo sapiens, UniProt Q5XXA6); conditions: cited from earlier work
T1 sequence (Q5XXA6 1-986): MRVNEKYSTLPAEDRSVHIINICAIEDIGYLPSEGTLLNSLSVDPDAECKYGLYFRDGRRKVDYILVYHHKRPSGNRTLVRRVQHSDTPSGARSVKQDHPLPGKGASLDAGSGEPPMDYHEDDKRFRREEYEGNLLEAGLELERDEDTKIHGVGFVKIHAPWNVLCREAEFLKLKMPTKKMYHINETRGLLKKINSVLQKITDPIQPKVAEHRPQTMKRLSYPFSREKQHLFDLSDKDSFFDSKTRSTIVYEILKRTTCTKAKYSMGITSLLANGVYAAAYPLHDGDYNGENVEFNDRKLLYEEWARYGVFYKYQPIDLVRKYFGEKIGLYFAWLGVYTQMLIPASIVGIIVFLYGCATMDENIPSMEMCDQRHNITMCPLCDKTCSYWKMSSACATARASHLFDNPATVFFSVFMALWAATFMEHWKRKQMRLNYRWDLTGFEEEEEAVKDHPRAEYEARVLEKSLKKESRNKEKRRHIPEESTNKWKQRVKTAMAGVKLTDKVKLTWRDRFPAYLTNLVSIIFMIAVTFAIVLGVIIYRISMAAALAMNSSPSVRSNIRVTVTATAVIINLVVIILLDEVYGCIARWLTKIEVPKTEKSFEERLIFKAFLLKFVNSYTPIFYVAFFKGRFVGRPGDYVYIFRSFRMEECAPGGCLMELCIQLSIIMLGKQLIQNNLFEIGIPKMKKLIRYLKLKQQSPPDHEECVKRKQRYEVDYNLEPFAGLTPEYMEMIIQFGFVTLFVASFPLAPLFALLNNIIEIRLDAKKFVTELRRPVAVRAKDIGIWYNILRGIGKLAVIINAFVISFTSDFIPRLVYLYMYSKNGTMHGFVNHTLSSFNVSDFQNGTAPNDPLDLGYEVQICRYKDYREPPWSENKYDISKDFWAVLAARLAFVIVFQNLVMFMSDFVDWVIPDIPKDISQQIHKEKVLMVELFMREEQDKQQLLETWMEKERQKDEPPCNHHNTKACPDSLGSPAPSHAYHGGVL

TMEM 116F = molecular target: T2, TMEM 116F (Homo sapiens, UniProt Q4KMQ2); conditions: cited from earlier work
T2 sequence (Q4KMQ2 1-910): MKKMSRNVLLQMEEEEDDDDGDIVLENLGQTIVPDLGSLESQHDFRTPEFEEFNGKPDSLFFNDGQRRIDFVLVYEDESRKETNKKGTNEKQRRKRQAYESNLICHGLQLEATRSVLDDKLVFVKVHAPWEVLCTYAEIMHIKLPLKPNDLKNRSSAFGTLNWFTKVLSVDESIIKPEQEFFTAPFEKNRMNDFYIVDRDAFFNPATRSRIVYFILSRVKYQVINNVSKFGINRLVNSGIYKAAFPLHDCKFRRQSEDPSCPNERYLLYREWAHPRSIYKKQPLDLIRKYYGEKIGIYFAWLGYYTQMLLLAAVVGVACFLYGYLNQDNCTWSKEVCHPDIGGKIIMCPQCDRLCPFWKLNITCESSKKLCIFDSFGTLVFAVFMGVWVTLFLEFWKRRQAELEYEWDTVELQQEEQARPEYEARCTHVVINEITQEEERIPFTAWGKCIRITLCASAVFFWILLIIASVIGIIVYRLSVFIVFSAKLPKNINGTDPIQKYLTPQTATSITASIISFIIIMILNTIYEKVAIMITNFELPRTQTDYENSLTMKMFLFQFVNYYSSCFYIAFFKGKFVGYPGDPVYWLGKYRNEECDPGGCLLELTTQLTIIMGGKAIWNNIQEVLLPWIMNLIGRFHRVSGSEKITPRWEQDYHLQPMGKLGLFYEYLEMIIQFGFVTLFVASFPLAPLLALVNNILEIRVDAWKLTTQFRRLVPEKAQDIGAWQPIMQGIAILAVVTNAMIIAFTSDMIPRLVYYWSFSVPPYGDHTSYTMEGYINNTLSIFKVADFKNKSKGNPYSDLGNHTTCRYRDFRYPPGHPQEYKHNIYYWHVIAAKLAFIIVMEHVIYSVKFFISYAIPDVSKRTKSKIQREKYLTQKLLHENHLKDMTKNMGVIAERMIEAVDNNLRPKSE

in vivo = conditions: sheep
all targeted strains = test: Minimum Inhibitory Concentration (MIC) assay, all targeted strains; conditions: read-out: MIC against all targeted strains
SARS-CoV-2 = SARS-CoV-2 in Vero E6 cells; cited from earlier work

O=C(Nc1cc(Cl)cc(Cl)c1O)c1c(O)c(Cl)cc(Cl)c1Cl [oxyclozanide, Oxyclozanide]
efficiency in reducing bacterial load ([1]; comparison among formulations): highest efficiency in reducing bacterial load of S. aureus
bacterial load in repeated spot test, API in DMSO [1]: substantially decreased the bacterial load

O=C(Nc1ccc([N+](=O)[O-])cc1Cl)c1cc(Cl)ccc1O [niclosamide]
bacterial load in repeated spot test, API in DMSO [1]: substantially decreased the bacterial load
efficacy margin mean systemic exposure of human oral dose to IC90 [2]: 8 fold
EC50 (SARS-CoV): < 100 nM
effect in asthmatic mice (asthmatic mice): reduced mucus production and secretion, as well as bronchoconstriction
inhibition of Cl- channel TMEM16A (TMEM16A): potent inhibitor
inhibition of Cl- channel TMEM 116F (TMEM 116F): potent inhibitor
Cmax (in vivo; systemic exposure Cmax (mean)): 577 ng/mL
Cmax (in vivo; systemic exposure Cmax (range)): 217 to 803 ng/mL
MIC (all targeted strains): ≤ 0.5 µg/mL

CCN(CC)CCCC(C)Nc1ccnc2cc(Cl)ccc12 (stereo not shown) [chloroquine]
EC50 (SARS-CoV-2): 1130 nM

CC(=O)Oc1ccccc1C(=O)Nc1ncc([N+](=O)[O-])s1 [nitazoxanide]
EC50 (SARS-CoV-2): 2120 nM
